According to ChEMBL document CHEMBL3507680, “University of Dundee, Gates Library screen for HepG2 cell viability”:

experiment: Human HepG2 cell viability assay in 384 well format; type: toxicity, cell-based; parameters: dose 125 nL, time 70.5 hour; cytotoxicity at 70.5 h: concentration not given beside the values; details: HepG2 cells, read-out: Inhibition

Row | Compound | cytotoxicity at 70.5 h [%]
1 | O=C(c1cnc(-c2cccnc2)nc1)N1CCSCC1 | 21.6
2 | Cc1c(C(=O)O)cnn1-c1ccc(-c2nc(C(C)C)no2)cn1 | -15.1
3 | CN(C)C1CCCN(C(=O)NCCc2cc(F)ccc2F)C1 (centres undefined) | 23.5
4 | Cc1cc(C(F)(F)F)nn1CC(C)C(=O)Nc1cccnc1 (centres undefined) | -3.81
5 | Cc1ccc2cc(CNCCCN3CCOCC3)c(=O)[nH]c2c1 | -13
6 | Cc1ccsc1CN(CCN(C)C)C(=O)c1ccc(C#N)nc1 | -8.67
7 | Cc1cccc(CN2CCc3nnc(CN(C)C)n3CC2)n1 | -10.7
8 | CN(Cc1cc(C(C)(C)C)n[nH]1)C(=O)c1ccc2nccn2c1 | -2.34
9 | COc1ccc(Oc2ncccc2NC(=O)N2CC[C@H](O)C2)cc1 | -1.8
10 | CC(CCNC(=O)NCCNc1cnccn1)c1ccccc1 (centres undefined) | -13.6
11 | CNc1cc(C2CCCN2C(=O)CCc2ccccc2F)ccn1 (centres undefined) | -2.87
12 | Cc1n[nH]/c(=N\C(=O)c2c3c(nc4onc(C)c24)CCC3)s1 | -13.7
13 | COCCC(=O)N1CCCC1c1nc(C)c2c(n1)N(C)C(=O)CC2 (centres undefined) | -3.97
14 | CC(C)c1nnc2n1CCN(C(=O)c1cnc(C3CC3)s1)C2 | -7.9
15 | Cc1cc(N2CCN(C(=O)c3cc(Cl)c[nH]3)CC2)nc(C(C)C)n1 | -7.83
16 | CN(Cc1ccc2c(c1)OCO2)C(=O)c1ccc(C2CCCNC2)cc1 (centres undefined) | -6.12
17 | Cn1ccnc1C(O)c1ccccc1N1CCN(CC2CCCC2)CC1 (centres undefined) | -3.89
18 | CCCS(=O)(=O)N1CCC2(CCC(=O)N(CCc3ccccc3)C2)CC1 | -10.1
19 | O=C(C1CC(F)(F)C1)N1C[C@@H]2CN(Cc3ccsc3)CCO[C@@H]2C1 | -14.8
20 | Cc1cc(NCCO)nc(-c2ccccc2O)n1 | 6.62
21 | COCCN1CCC(C(=O)N(C)Cc2cccc(Cl)c2)C1 (centres undefined) | 32
22 | Cc1cnn(CCNCC(O)c2cccc(Br)c2)c1 (centres undefined) | -8.97
23 | Cc1nc(CN2CCCC2c2c(C)nn(C)c2Cl)oc1C (centres undefined) | 19.6

Row | Compound | cytotoxicity at 70.5 h [%]
24 | Cc1nc(-n2nc(C3CC3)cc2NC(=O)C(C)C)[nH]c(=O)c1C | 40.2
25 | COc1cccc2ccn(CC(=O)NCCC(C)C)c12 | 11
26 | CCCOc1cccc(CNC(=O)CN2CCN(C)CC2C)c1 (centres undefined) | -13.5
27 | CC(=O)c1cccc(S(=O)(=O)NCCNC(=O)c2snnc2C)c1 | 7.7
28 | CC(C)N1CCN(C(=O)c2csc3nc(-c4ccc(Cl)cc4)cn23)CC1 | -16.3
29 | CCCNC(=O)CCc1ccnc2ccccc12 | -14
30 | COc1cccc(CN2CC(O)CN(S(C)(=O)=O)CC2=O)c1OC (centres undefined) | 4.13
31 | O=C(c1ccco1)N1C[C@H]2CCCN(Cc3ccncc3)[C@H]2C1 | -3.44
32 | Cc1nc[nH]c1CN1CCn2nc(CN3Cc4ccccc4C3)cc2C1 | -7.32
33 | CC(C)CCC1=NC2(CCN(C(=O)CN3CCCC3=O)CC2)C(=O)N1 | -5.52
34 | O=c1cc(CSc2nnc[nH]2)nc2sc3c(n12)CCCC3 | -10.9
35 | O=S1(=O)CCC(NCCn2cncc2-c2ccc3c(c2)CCCO3)C1 (centres undefined) | -8.18
36 | Cc1cnc(C(=O)N2CCC3(CCCN(c4nncs4)C3)C2)cn1 (centres undefined) | -0.974
37 | CCCc1noc(CN2CCCC2c2c(C)nn(C)c2OC)n1 (centres undefined) | -7.09
38 | Cc1ccc(NC2CCN(C(=O)c3cccc(F)c3F)CC2)nn1 | -13.7
39 | c1nc(N2CCN(Cc3nnnn3C3CC3)CC2)c2sccc2n1 | 2.44
40 | CCN1CC(C(=O)NCCn2cccc2)CCC1=O (centres undefined) | -7.13
41 | COc1ccc(F)c(-c2cc(O)nc(N)n2)c1 | -9.12
42 | CC(=O)NCC(=O)N1Cc2cnc(CC(C)C)nc2C1 | -5.57
43 | O=C(N[C@H]1CC[C@H](O)CC1)c1ccc2nc(-c3ccc(F)cc3)cn2c1 | -9.74
44 | COCCC(=O)N1CC2(CCN(Cc3cccc(Cl)c3)CC2)C1 | -8.68
45 | CCC/N=c1/c(NC(=O)NCCOC)c(O)oc2ccccc12 | 25.8
46 | O=C(Cc1cccs1)Nc1cnn(C2CCOC2)c1 (centres undefined) | 40.6

Row | Compound | cytotoxicity at 70.5 h [%]
47 | OC1(CN2CCN(c3cccc(C(F)(F)F)c3)CC2)CNCCOC1 (centres undefined) | -12
48 | OC[C@@H]1[C@H]2CN(c3ccccn3)CCN2C[C@H]1c1ccccc1 | -1.78
49 | Cc1cnn(CC2CCN(c3cc(C(C)C)nc4ccnn34)CC2)c1 | -0.486
50 | O[C@@]1(Cn2cnc(Cl)c2Cl)CCCN2CCCC[C@@H]21 | -12.5
51 | Cc1nn(C)c(Cl)c1C1CCCN1c1ncnc2[nH]ccc12 (centres undefined) | 12.9
52 | NC(=O)NCC1CCCCN1C(=O)c1cccc(Cl)c1 (centres undefined) | -4.19
53 | Cc1ccc(CNC(=O)Nc2nnc(C)s2)cn1 | -5.53
54 | CN1CC(=O)N(c2ccccc2)CC12CCN(Cc1cccnc1)C2 (centres undefined) | -11.3
55 | O=C1CN(Cc2nnc(-c3ccccc3Br)o2)CCN1 | -6.27
56 | CCN1C[C@@H]2CN(S(=O)(=O)c3cccs3)C[C@@H]2C1=O | -8.27
57 | c1nc2c(c(NCCCn3cncn3)n1)CCN(CC1CCOC1)CC2 (centres undefined) | -2.03
58 | COCCOCC(=O)Nc1nc2c(OC)cc(F)cc2s1 | -8.97
59 | N#Cc1c(N2CCCN(C3CCOCC3)CC2)nc2ccccn12 | -2.26
60 | COc1ccc2c(=O)n(CC3CCCN(C)C3)ccc2c1OC (centres undefined) | 10.5
61 | Cc1ncsc1CCN(C)C(=O)CN1CCOC1=O | 8.27
62 | Cc1nc(O)cc(C2CCN(C(=O)C(C)Cn3nc(C)nc3C)CC2)n1 (centres undefined) | -4.5
63 | Cc1cccc(CN2C[C@@H]3CN(C(=O)c4ccsc4)C[C@@H]3C2=O)c1 | -5.57
64 | Cc1nonc1CN(C)c1nc(-c2ccco2)nc2c1CCN(C)CC2 | -8.33
65 | CN(Cc1ccccc1)c1ncccc1CNC1CCCC1 | -1.34
66 | O=C1[C@H]2CC[C@H](CN(Cc3nnc(C4CC4)o3)C2)N1Cc1cscn1 | 18.5
67 | CC(C(=O)NC1CCCCC1)N1CCc2[nH]nc(C(F)(F)F)c2C1 (centres undefined) | -7.82
68 | Cc1nc2cc(-c3nccn3C)nn2c(N2CCCC(CO)C2)c1C (centres undefined) | 2.86
69 | CCCNC(=O)c1cc2c(s1)CCN2C(=O)CN(C)C | -14.4

Row | Compound | cytotoxicity at 70.5 h [%]
70 | CS(=O)(=O)N1CCN(CC2CC2)c2ncccc2C1 | -9.41
71 | Cc1nc(-c2ccccc2)nc2c1CCN(Cc1nccn1C)CC2 | -10.4
72 | Cc1ccccc1N1CCN(c2nc(N(C)C)nc3c2CCNC3)CC1 | 33.6
73 | COC(C(=O)NC1CC1)c1ccccc1 (centres undefined) | 28.7
74 | Cc1ccccc1N1CC(C)N(Cc2ccc(C)c(F)c2F)CC1=O (centres undefined) | 5.81
75 | Cc1nc(C)n(CC2CCCN2Cc2nc(N)c3ccccc3n2)n1 (centres undefined) | -4.33
76 | COCCn1cc2c(n1)C(CNCc1cccc(OC)c1)OCC2 (centres undefined) | 20.4
77 | Cc1cc(C)nc(NCc2nnc3n2CCCCC3)n1 | 13.9
78 | CCN(Cc1cccc(C(=O)Nc2ncc(C)s2)c1)[C@H]1COC[C@@H]1O | -3.78
79 | CN(Cc1ccccn1)C1COC2(CCN(Cc3cccnc3)CC2)C1 (centres undefined) | 24.4
80 | COc1ccc(CN2CCO[C@H]3[C@H](Oc4ccccn4)CC[C@@H]32)cc1 | -2.38
81 | COc1cccc2cc(CNC(=O)N3CCS(=O)(=O)CC3)oc12 | 12.1
82 | NC(=O)CC1CCN(S(=O)(=O)N2CCCC2c2ccco2)CC1 (centres undefined) | -5.7
83 | CC(C)OC(C)c1nnc(SCC(=O)O)n1-c1ccc(F)cc1F (centres undefined) | -6.19
84 | CN(C)c1ccc(-c2ccnc3c2ccn3C)nn1 | 18.4
85 | Cc1nccc(N2CCC(=O)N(CC3CC3)C(C(C)C)C2)n1 (centres undefined) | -1.5
86 | CC[C@H]1COCCN1C(=O)c1cnc(N2CCN(C)CC2)nc1C | -8.1
87 | N#Cc1cccc(NC(=O)N2CCCC(N3CCCC3=O)C2)c1 (centres undefined) | 0.781
88 | O=C(NCCCNC(=O)c1cccc(O)c1)NCc1ccccc1F | -9.83
89 | CC(C)c1cnc(N2C[C@H](CO)C[C@H](CN3CCOCC3)C2)nc1 | -4.2
90 | Cc1ccc(CNC(C)c2ccc(OCC(=O)NC3CC3)cc2)o1 (centres undefined) | -1.22
91 | Cc1ccc(CN2C[C@H]3CC[C@@H]2CN(Cc2[nH]cnc2C)C3)o1 | -0.228
92 | COC(=O)C(NC(=O)CC(C)C)c1cc(F)ccc1F (centres undefined) | -1.44

Row | Compound | cytotoxicity at 70.5 h [%]
93 | COc1cccc(CC2(C(=O)O)CCN(c3nccs3)CC2)c1 | -7.32
94 | CN(C)C(=O)C1CCC2(CCN(C(=O)Nc3ccccc3)CC2)O1 (centres undefined) | -8
95 | Cc1noc(C)c1C(=O)NCC(c1cccc(F)c1)N(C)C (centres undefined) | -4.95
96 | O=C(CNc1ccc(OCC2CCOCC2)cc1)NCc1ccco1 | -20.8
97 | Cc1noc(C)c1CN1CCC(c2nc3cc(Cl)ccc3o2)CC1 | -14.6
98 | Cc1cccc(-c2nnn3c2COC(CNC(=O)N2CCCC2)C3)c1 (centres undefined) | 1.74
99 | c1cnc(-c2cnc(N3CCSCC3)nc2C2CCCO2)cn1 (centres undefined) | -16.8
100 | CC(=O)c1nn(-c2ccccc2)c(C)c1C(C)=O | -8.03
101 | CCC(CO)N(Cc1ccsc1)CC1CC1 (centres undefined) | -4.03
102 | COCCN1C(=O)CC(N2CCN(c3ccccc3)CC2)C1=O (centres undefined) | -3.99
103 | COCCN1CCCC12CCN(Cc1cccnc1OC)CC2 | 31.2
104 | Cc1ccc(C2(CN3CCN(c4ncccn4)CC3)CCNCC2)nc1 | -1.1
105 | Cc1c(NC(=O)CN2CCC(Oc3cnccn3)CC2)cnn1C | -3.61
106 | O=C1NC(c2ccccc2)=N[C@@]12CC[C@@H]1CN(Cc3nccs3)C[C@@H]12 | -4.6
107 | O=C(CCCn1cncn1)N1CCCC1c1nc(-c2ccccc2)no1 (centres undefined) | -1.82
108 | Cc1ccc(C2CN(CCS(C)(=O)=O)CCO2)c(C)c1 (centres undefined) | -12.5
109 | CCn1c(SCC(=O)O)nnc1C(C)NC(=O)c1ccc(Cl)cc1 (centres undefined) | -8.19
110 | COc1cc(N2CC[C@H](O)[C@@H]2Cc2ccccc2)ncn1 | 16.6
111 | CCN(CC)c1ncccc1CNCc1ccc(Cl)s1 | -7.77
112 | CCCN(C)S(=O)(=O)N1CCCC1c1ccco1 (centres undefined) | 1.45
113 | COc1cc(C(=O)N(Cc2ccc(F)cc2)C2CC2)cc2c1OCCO2 | 17.8
114 | CCS(=O)(=O)N1CCn2cc(CN(C)Cc3ccco3)nc2C1 | -2.7
